Like-named read-outs stand apart in the source and are kept apart here.
Legend:
[1] = tested on: NL4-3 RT M41L, D67N, K103N, M184V, L210W, T215Y; assay: Antiviral assay on Multi-drug (NRTI + NNRTI) resistant virus; assay type: cell-based, HIV-1; settings: ratio EC50 resistant virus / wt virus; NRTI + NNRTI mutations
[2] = tested on: NL4-3 RT M41L, D67N, T69N, K70R, T215F, K219E; assay: Antiviral assay on NRTI-resistant virus; assay type: cell-based, HIV-1; settings: ratio EC50 resistant virus / wt virus
[3] = tested on: HIV-1 NL4-3; assay: Antiviral assay in MT-4 cells, multiple-round infection, CellTiter-Glo; assay type: cell-based
Method: MT-4 cells growing exponentially at the density of 10^6/mL were infected with HIV-1 strain NL4-3 at a MOI (multiplicity of infection) of 0.001 for 2 h. The cells were washed with PBS and aliquoted, using 100 μL fresh complete RPMI, into 96-well white plates (Corning) in the presence of different concentrations of compounds.

[4] = tested on: NL4-3 RT K103N, Y181C; assay: Antiviral assay on NNRTI-resistant virus; assay type: cell-based, HIV-1; settings: ratio EC50 resistant virus / wt virus
[5] = tested on: VSV-G-pseudotyped NL4-3Δenv-luc; assay: microbe, parasite or virus in culture; assay type: cell-based, HIV-1; settings: for EC50: Human immunodeficiency virus 1, NL43, MT4, read-out: NL4-3 EC50 Single-round
[6] = tested on: NL4-3 Integrase G140S, Q148H; assay: Antiviral assay on INSTI-resistant virus; assay type: cell-based, HIV-1; settings: ratio EC50 resistant virus / wt virus
[7] = tested on: NL4-3 Protease L10R, M46I, L63P, V82T, I84V; assay: Antiviral assay on PI-resistant virus; assay type: cell-based, HIV-1; settings: ratio EC50 resistant virus / wt virus
[8] = in vitro; assay type: cell-based; settings: human
Method: Growth inhibition was monitored in a proliferating human T-cell line (MT-4) with different concentrations of compounds. ATP levels were quantified using the CellTiter-Glo® luminescent reagent (Promega) to measure the ability of a compound to inhibit cell growth, an indication of the compound’s cytotoxicity. Cytotoxicity was evaluated at either day 2 or day 5.

[9] = target: T1, IN-CCD/LEDGF-IBD interaction (Human immunodeficiency virus type 1 group M subtype B, UniProt P12497, F1332K); assay: HTRF-based CCD-IBD interaction assay; assay type: binding, HIV-1; settings: Table 1
T1 construct: cloning the integrase region (residues 50 to 202, encoding the catalytic core domain); made in house
Text: All HTRF® conjugated monoclonal antibodies were purchased from Cisbio Bioassays.

[10] = target: IN-LEDGF/p75 interaction (Human immunodeficiency virus type 1 group M subtype B, UniProt P12497); assay: biochemical; settings: IN-LEDGF IC50, Table 1; HTRF, full length proteins
Method: IN-LEDGF HTRF® assay was performed in 384-well low volume black polystyrene plates (Corning) using IN-LEDGF assay buffer (25 mM Tris–HCl pH 7.4, 150 mM NaCl, 2 mM MgCl2, 0.4 M KF, 0.1% Igepal CA-630, 0.1% bovine serum albumin, 1 mM DTT). […] The HTRF ratio was converted to % inhibition and analyzed by fitting a sigmoidal dose–response equation with Hill slope to determine the IC50 of the compound.

[11] = tested on: HxB2 HIV-1; assay: Antiviral assay in MT4 cells infected with HxB2; assay type: cell-based; settings: Human immunodeficiency virus 1, HXB2, MT4; Table 1; read-out: HxB2 EC50 (MT4 assays)
[12] = target: T2, IN strand transfer activity (Human immunodeficiency virus type 1 group M subtype B, UniProt P12497); assay: IN strand transfer ELISA assay; assay type: biochemical, HIV-1; settings: for IC50: Table 1, ELISA, read-out: IN ST IC50; for IN ST plateau (%): inhibition plateau, concentrations up to 100 μM
T2 construct: loaded on a Superdex 200 16/600 PG column (for full length IN); made in house
Method: IN strand transfer ELISA assay has been adapted from. […] 16 μL of IN mixture (20 mM HEPES pH 7.5, 10 mM MgCl2, 1 mM DTT, 0.50 μM His6-IN) was added. […] The reaction was stopped by addition of 60 μL stop mixture (20 mM Tris–HCl pH 7.6, 0.4 M NaCl, 10 mM Na2EDTA, 0.1 mg/mL salmon sperm DNA) and the volume transferred to Reacti-Bind high-binding capacity streptavidin-coated white plates (Thermo Scientific Pierce). After 1 h incubation at room temperature under gentle shaking, integrase and unjoined DNA were removed by three washes with 200 μL wash solution 1 (30 mM NaOH, 0.2 M NaCl, 1 mM Na2EDTA). 100 μL of 2000-fold diluted HRP-conjugated anti-DIG Fab (Roche Applied Science) was added and the plate was incubated for 1 h at 37°C. Unbound antibody was removed with wash solution 2 (PBS pH 7.4, 0.05% Tween-20, 0.1% bovine serum albumin), 100 μL of SuperSignal Femto ELISA substrate (Thermo Scientific Pierce) was added and chemiluminescence was immediately read in a PHERAstar Plus with LUM-plus module. The signal, converted to % inhibition, was analyzed by fitting a sigmoidal dose–response curve to determine IC50 and the inhibition plateau.

[13] = tested on: HIV-1 LAV virions produced by HeLa-LAV cells; assay: Virions produced by compound-treated HeLa-LAV cells: p24 and infectivity; assay type: cell-based; settings: luciferase assay in TZM cells
[14] = tested on: NL4-3 IN T174I mutant virus; assay type: cell-based, HIV-1
[15] = tested on: HIV-1 NL4-3 wt; assay type: cell-based
[16] = target: His6-IN (HIV-1 NL4-3 integrase wild type, from pINSD.His) (HIV-1 NL4-3); assay: SEC; Superdex 200 10/300 GL, 0.4 mL/min, 50 mM HEPES pH 7.5, 1 M NaCl, 7 mM CHAPS, 5 mM MgCl2, 10 mM DTT, 10% glycerol, room temperature; His6-IN wt 21 uM or His6-IN A128T 40 uM; no compound
[17] = target: His6-IN (HIV-1 NL4-3 integrase wild type, from pINSD.His) (HIV-1 NL4-3); assay: SEC; Superdex 200 10/300 GL, 0.4 mL/min, 50 mM HEPES pH 7.5, 1 M NaCl, 7 mM CHAPS, 5 mM MgCl2, 10 mM DTT, 10% glycerol, room temperature; His6-IN wt 21 uM or His6-IN A128T 40 uM incubated for 10 min with 100 uM BI-D or Mut101 before injection
[18] = Human immunodeficiency virus 1, NL43, MT4, Table 3, mean of two independent experiments, read-out: EC50 NL4-3 WT
[19] = Human immunodeficiency virus 1, NL43, MT4 cells, mean of six independent experiments, read-out: NL4-3 EC50 Multiple-round
[20] = Human immunodeficiency virus 1, NL43, MT4, Table 1, read-out: NL4-3 EC50 (MT4 assays)
[21] = HEK293T transfection, MT4 infection, CellTiter-Glo

Row | Compound | EC50 [5] | EC50 [3, 19] | SR/MR ratio [5] | EC50 [3, 20] | CC50 [8] | IC50 [9] | IC50 [10] | EC50 [11] | also measured
1 | Cc1cn([C@H]2C[C@H](N=[N+]=[N-])[C@@H](CO)O2)c(=O)[nH]c1=O [AZT, Zidovudine] | 2.5 ± 0.3 nM | – | – | – | – | – | – | – | EC50 fold change Multi-drug [1]: 10; EC50 fold change NRTIs [2]: 88; EC50 [3, 18]: 140 nM; EC50 fold change NNRTIs [4]: 0.1; EC50 fold change INSTIs [6]: 0.4; EC50 fold change PI [7]: 1
2 | O=C1Nc2ccc(Cl)cc2[C@@](C#CC2CC2)(C(F)(F)F)O1 [EFV, Efavirenz, reference compound] | 1.2 ± 0.4 nM | 1.3 ± 0.2 nM | 0.9 | – | – | – | – | – | –
3 | COc1cc2c(cc1Cc1cccc(Cl)c1F)c(=O)c(C(=O)O)cn2[C@H](CO)C(C)C [EVG, Elvitegravir] | 0.42 ± 0.05 nM | 0.86 ± 0.4 nM | 0.5 | – | – | – | – | – | EC50 fold change Multi-drug [1]: 0.3; EC50 fold change NRTIs [2]: 0.3; EC50 [3, 18]: 3 nM; EC50 fold change NNRTIs [4]: 1; EC50 fold change INSTIs [6]: 2036; EC50 fold change PI [7]: 1
4 | CC(C)(C)NC(=O)[C@@H]1CN(Cc2cccnc2)CCN1C[C@@H](O)C[C@@H](Cc1ccccc1)C(=O)N[C@H]1c2ccccc2C[C@H]1O [IDV, Indinavir] | – | 36 nM | – | – | – | – | – | – | EC50 fold change Multi-drug [1]: 1; EC50 fold change NRTIs [2]: 1; EC50 [3, 18]: 32 nM; EC50 fold change NNRTIs [4]: 1; NL4-3 EC50 Single-round [5]: Inactive; EC50 fold change INSTIs [6]: 1; EC50 fold change PI [7]: 9
5 | CC(C)(C)OC(C(=O)O)c1c(-c2ccc3c(c2)CCCO3)ccc2ncccc12 (stereo not shown) [Mut029, 2-(tert-butoxy)-2-[6-(3,4-dihydro-2H-1-benzopyran-6-yl)quinolin-5-yl]acetic acid] | 30000 ± 4000 nM | 3800 ± 1600 nM | 8 | 3800 nM | > 50 µM | 1.7 µM | 2.5 µM | 3800 nM | –
6 | CC(C)(C)OC(C(=O)O)c1c(-c2ccc3c(c2)CCCO3)ccc2ccccc12 (stereo not shown) [Mut047, 2-(tert-butoxy)-2-[2-(3,4-dihydro-2H-1-benzopyran-6-yl)naphthalene-1-yl]acetic acid] | 37000 ± 2000 nM | 16000 ± 7000 nM | 2.3 | 16000 nM | > 50 µM | 3.8 µM | 7.9 µM | 19000 nM | IC50 [12]: 880 nM; IN ST plateau (%) [12]: 70%
7 | Cc1nc2ccccc2c(C2CCCCC2)c1C(OC(C)(C)C)C(=O)O (stereo not shown) [Mut049, 2-(tert-butoxy)-2-(4-cyclohexyl-2-methylquinolin-3-yl)acetic acid] | 41000 ± 2000 nM | 2000 ± 100 nM | 21 | 2000 nM | > 50 µM | 18 µM | 3.5 µM | 750 nM | IC50 [12]: 180 nM; IN ST plateau (%) [12]: 56%
8 | CC(C)(C)OC(C(=O)O)C1=C(c2ccc3c(c2)CCCO3)c2ccccc2OC1 (stereo not shown) [Mut062, 2-(tert-butoxy)-2-[4-(3,4-dihydro-2H-1-benzopyran-6-yl)-2H-chromen-3-yl]acetic acid] | – | 3300 ± 1500 nM | >25 | 3300 nM | > 50 µM | 2.7 µM | 3.1 µM | 1300 nM | IC50 [12]: 540 nM; IN ST plateau (%) [12]: 73%; Inhibition in single-round infection assay [5]: 30% @50
9 | CC(C)(C)OC(C(=O)O)c1ccc(Oc2ccccc2)cc1-c1ccc2c(c1)CCCO2 (stereo not shown) [Mut063, 2-(tert-butoxy)-2-[2-(3,4-dihydro-2H-1-benzopyran-6-yl)-4-phenoxyphenyl]acetic acid] | – | – | – | > 50000 nM | > 50 µM | > 100 µM | > 100 µM | – | IC50 [12]: > 100000 nM; Infectivity of virions from treated HeLa-LAV cells [13]: no infectivity defect
10 | Cc1nc2c(c(-c3ccccc3)c1C(OC(C)(C)C)C(=O)O)CCCC2 (stereo not shown) [Mut075, 2-(tert-butoxy)-2-(2-methyl-4-phenyl-5,6,7,8-tetrahydro-quinolin-3-yl)acetic acid] | – | 3400 ± 1000 nM | >25 | 3400 nM | > 50 µM | 14 µM | 4 µM | 1000 nM | Inhibition in single-round infection assay [5]: 23% @50
11 | Cc1ccnc2c1NC(=O)c1cccnc1N2C1CC1 [NVP, Nevirapine] | 41 ± 8 nM | 86 ± 12 nM | – | – | – | – | – | – | EC50 fold change Multi-drug [1]: 14; EC50 fold change NRTIs [2]: 3; EC50 [3, 18]: 160 nM; EC50 fold change NNRTIs [4]: 287; EC50 fold change INSTIs [6]: 1; EC50 fold change PI [7]: 1
12 | Cc1nnc(C(=O)NC(C)(C)c2nc(C(=O)NCc3ccc(F)cc3)c(O)c(=O)n2C)o1 [RAL, Raltegravir, reference compound] | 2.5 ± 0.3 nM | – | – | – | – | – | – | – | Infectivity of virions from treated HeLa-LAV cells [13]: no infectivity defect; EC50 ([3]; Human immunodeficiency virus 1, NL43, MT4, read-out: EC50 NL4-3 WT): 7 nM; EC50 ([3]; Human immunodeficiency virus 1, NL43, MT4, read-out: NL4-3 EC50 Multiple-round): 2.4 ± 0.6 nM; Infectivity of NL4-3 IN T174I virus produced in presence of compound [14, 21]: no effect; Infectivity of NL4-3 wt virus produced in presence of compound [15, 21]: no effect
13 | CC(C)(C)NC(=O)[C@@H]1C[C@@H]2CCCC[C@@H]2CN1C[C@@H](O)[C@H](Cc1ccccc1)NC(=O)[C@H](CC(N)=O)NC(=O)c1ccc2ccccc2n1 [SQV, Saquinavir, reference compound] | – | 13 nM | – | – | – | – | – | – | Infectivity of virions from treated HeLa-LAV cells [13]: strong virus infectivity defects; NL4-3 EC50 Single-round [5]: Inactive; Infectivity of NL4-3 IN T174I virus produced in presence of compound [14]: sensitive to and inactivated; Infectivity of NL4-3 wt virus produced in presence of compound [15]: sensitive to and inactivated
14 | His6-IN (HIV-1 NL4-3 integrase wild type, from pINSD.His) (enzyme) | – | – | – | – | – | – | – | – | stoichiometry N [16]: 2; stoichiometry N [17]: 4

— PMC4222603, “Dual inhibition of HIV-1 replication by integrase-LEDGF allosteric inhibitors is predominant at the post-integration stage” (Retrovirology, 2013)
